Reference: ChEMBL document CHEMBL4000185, “Pyrimidine-Based Inhibitors of Dynamin I GTPase Activity: Competitive Inhibition at the Pleckstrin Homology Domain” (J Med Chem, 2017)
Activity calls are given as the source filed them. The rule behind the calls is not given here.

How the values were obtained:
Ovis aries [1] = organism: Ovis aries; test: Inhibition of phosphatidyl serine liposome-stimulated sheep brain dynamin 1 GTPase activity assessed as reduction orthophosphate release at 300 uM using GTP as substrate after 30 mins by malachite green reagent based colorimetric assay relative to control
[2] = Inhibition of phosphatidyl serine liposome-stimulated sheep brain dynamin 1 GTPase activity assessed as reduction orthophosphate release using GTP as substrate after 30 mins by malachite green reagent based colorimetric assay; design: species or system Ovis aries; conditions: read-out: IC50
[3] = Growth inhibition of human U87 cells after 72 hrs by MTT assay; format: functional, U-87MG ATCC; conditions: U-87 MG
SW480 [4] = test: Growth inhibition of human SW480 cells after 72 hrs by MTT assay; format: functional; conditions: SW480, 72 h
BE(2)-C [5] = test: Growth inhibition of human BE(2)-C cells after 72 hrs by MTT assay; format: functional
[6] = molecular target: Muscarinic acetylcholine receptor M3 (Homo sapiens) (UniProt P20309); test: Displacement of [3H]4-DAMP from human recombinant Muscarinic acetylcholine receptor M3 expressed in CHO cells at 10 uM after 60 mins by scintillation counting relative to control; format: cell-based; conditions: values are per cent of control
Muscarinic acetylcholine receptor M3 (Homo sapiens), sequence (P20309 whole entry, looked up): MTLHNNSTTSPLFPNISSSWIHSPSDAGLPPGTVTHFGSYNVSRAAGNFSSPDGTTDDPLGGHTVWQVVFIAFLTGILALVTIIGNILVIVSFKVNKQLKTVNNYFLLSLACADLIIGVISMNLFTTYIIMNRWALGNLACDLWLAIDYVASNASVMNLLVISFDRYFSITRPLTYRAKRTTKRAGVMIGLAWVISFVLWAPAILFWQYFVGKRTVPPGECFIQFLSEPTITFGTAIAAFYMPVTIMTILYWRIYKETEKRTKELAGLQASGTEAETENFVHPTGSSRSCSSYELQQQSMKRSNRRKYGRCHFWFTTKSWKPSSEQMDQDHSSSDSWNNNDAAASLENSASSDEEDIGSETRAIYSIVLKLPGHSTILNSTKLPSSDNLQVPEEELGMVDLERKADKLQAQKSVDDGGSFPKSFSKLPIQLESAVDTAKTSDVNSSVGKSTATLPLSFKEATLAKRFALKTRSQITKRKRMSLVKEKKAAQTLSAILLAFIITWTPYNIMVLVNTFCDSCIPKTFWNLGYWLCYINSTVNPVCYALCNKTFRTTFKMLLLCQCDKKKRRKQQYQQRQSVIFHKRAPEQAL

DU-145 [7] = test: Growth inhibition of human DU145 cells after 72 hrs by MTT assay; format: functional; conditions: DU-145, 72 h
MIA PaCa-2 [8] = test: Growth inhibition of human MIAPaCa2 cells after 72 hrs by MTT assay; format: functional; conditions: MIA PaCa-2, 72 h
[9] = molecular target: Sodium-dependent dopamine transporter (Homo sapiens) (UniProt Q01959); test: Displacement of [3H]BTCP from human recombinant dopamine transporter expressed in CHO cells at 10 uM after 120 mins by scintillation counting relative to control; format: cell-based; conditions: values are per cent of control
Sodium-dependent dopamine transporter (Homo sapiens), sequence (Q01959 whole entry): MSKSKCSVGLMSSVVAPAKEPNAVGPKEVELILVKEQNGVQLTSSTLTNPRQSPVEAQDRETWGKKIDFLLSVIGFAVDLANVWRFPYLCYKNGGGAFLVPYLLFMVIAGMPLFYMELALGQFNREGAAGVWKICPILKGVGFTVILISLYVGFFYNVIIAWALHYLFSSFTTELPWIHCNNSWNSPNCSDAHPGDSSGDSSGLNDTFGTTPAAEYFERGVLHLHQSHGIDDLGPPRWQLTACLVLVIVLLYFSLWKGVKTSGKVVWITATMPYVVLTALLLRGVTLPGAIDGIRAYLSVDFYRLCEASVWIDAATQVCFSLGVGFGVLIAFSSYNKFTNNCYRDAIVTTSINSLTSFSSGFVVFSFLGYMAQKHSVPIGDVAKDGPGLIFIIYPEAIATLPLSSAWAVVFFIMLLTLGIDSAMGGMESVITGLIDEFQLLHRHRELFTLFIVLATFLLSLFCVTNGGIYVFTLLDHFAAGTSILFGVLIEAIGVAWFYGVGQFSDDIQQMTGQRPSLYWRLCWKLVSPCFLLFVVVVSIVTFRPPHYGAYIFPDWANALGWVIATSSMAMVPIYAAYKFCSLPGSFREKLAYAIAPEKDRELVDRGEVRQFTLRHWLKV

[10] = molecular target: 5-hydroxytryptamine receptor 2A (Homo sapiens) (UniProt P28223); test: Displacement of [3H]ketanserin from human recombinant 5-HT2A receptor in HEK293 cells at 10 uM after 60 mins by scintillation counting relative to control; format: cell-based; conditions: values are per cent of control
[11] = molecular target: Muscarinic acetylcholine receptor M1 (Homo sapiens) (UniProt P11229); test: Displacement of [3H]pirenzepine from human recombinant Muscarinic acetylcholine receptor M1 expressed in CHO cells at 10 uM after 60 mins by scintillation counting relative to control; format: cell-based; conditions: values are per cent of control
Muscarinic acetylcholine receptor M1 (Homo sapiens), sequence (P11229 whole entry): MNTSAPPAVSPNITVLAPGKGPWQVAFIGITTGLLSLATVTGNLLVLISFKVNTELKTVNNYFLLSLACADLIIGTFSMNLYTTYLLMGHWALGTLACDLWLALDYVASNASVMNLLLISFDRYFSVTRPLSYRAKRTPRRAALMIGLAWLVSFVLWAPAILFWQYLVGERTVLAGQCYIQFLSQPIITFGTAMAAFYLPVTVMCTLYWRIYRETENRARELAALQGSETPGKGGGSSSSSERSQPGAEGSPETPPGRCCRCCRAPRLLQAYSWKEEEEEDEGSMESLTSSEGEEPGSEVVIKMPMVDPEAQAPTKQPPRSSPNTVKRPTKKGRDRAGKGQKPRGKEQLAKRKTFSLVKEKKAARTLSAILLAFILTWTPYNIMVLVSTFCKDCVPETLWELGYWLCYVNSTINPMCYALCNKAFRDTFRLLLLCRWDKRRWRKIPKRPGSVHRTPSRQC

[12] = molecular target: Histamine H1 receptor (Homo sapiens) (UniProt P35367); test: Displacement of [3H]pyrilamine from human recombinant histamine H1 receptor in HEK293 cells at 10 uM after 60 mins by scintillation counting relative to control; format: cell-based; conditions: values are per cent of control
[13] = molecular target: Substance-K receptor (Homo sapiens) (UniProt P21452); test: Displacement of [125I]NKA from human recombinant tachykinin NK2 receptor expressed in CHO cells at 10 uM after 60 mins by scintillation counting relative to control; format: cell-based; conditions: values are per cent of control
Substance-K receptor (Homo sapiens), sequence (P21452 whole entry): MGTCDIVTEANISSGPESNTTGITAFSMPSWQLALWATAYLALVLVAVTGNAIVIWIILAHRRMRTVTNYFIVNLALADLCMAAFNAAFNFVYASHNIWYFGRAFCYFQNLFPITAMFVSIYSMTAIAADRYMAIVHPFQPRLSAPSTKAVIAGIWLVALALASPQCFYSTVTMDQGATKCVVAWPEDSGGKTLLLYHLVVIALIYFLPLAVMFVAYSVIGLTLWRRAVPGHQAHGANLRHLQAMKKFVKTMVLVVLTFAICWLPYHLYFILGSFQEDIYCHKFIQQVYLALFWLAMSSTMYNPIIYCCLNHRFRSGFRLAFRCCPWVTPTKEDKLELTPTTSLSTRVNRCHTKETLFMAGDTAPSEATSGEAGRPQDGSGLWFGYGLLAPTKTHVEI

[14] = molecular target: 5-hydroxytryptamine receptor 7 (Homo sapiens) (UniProt P34969); test: Displacement of [3H]LSD from human recombinant 5-HT7 receptor expressed in CHO cells at 10 uM after 120 mins by scintillation counting relative to control; format: cell-based; conditions: values are per cent of control
5-hydroxytryptamine receptor 7 (Homo sapiens), sequence (P34969 whole entry): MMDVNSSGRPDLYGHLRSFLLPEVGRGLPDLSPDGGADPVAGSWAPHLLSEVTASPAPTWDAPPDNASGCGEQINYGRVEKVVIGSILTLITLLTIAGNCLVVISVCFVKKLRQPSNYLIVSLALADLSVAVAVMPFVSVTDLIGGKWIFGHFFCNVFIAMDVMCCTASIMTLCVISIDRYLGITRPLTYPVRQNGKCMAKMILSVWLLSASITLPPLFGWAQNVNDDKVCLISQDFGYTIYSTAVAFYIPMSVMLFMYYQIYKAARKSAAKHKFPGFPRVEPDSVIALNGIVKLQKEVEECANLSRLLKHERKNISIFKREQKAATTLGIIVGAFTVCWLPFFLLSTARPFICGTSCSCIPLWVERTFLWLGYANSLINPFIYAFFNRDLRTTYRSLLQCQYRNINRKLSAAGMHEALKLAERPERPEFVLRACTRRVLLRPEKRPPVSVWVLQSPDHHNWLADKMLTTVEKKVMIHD

[15] = molecular target: Melanocortin receptor 4 (Homo sapiens) (UniProt P32245); test: Inhibition of human recombinant melanocortin 4 receptor expressed in CHO cells at 10 uM relative to control; format: cell-based; conditions: values are per cent of control
NCI-H460 [16] = test: Growth inhibition of human NCI-H460 cells after 72 hrs by MTT assay; format: functional; conditions: NCI-H460, 72 h
[17] = molecular target: T1, 5-hydroxytryptamine receptor 2B (Homo sapiens, UniProt P41595); test: Displacement of [125I](+/-)DOI from human recombinant 5-HT2B receptor expressed in CHO cells at 10 uM after 60 mins by scintillation counting relative to control; format: cell-based; conditions: values are per cent of control
T1 sequence (P41595 whole entry): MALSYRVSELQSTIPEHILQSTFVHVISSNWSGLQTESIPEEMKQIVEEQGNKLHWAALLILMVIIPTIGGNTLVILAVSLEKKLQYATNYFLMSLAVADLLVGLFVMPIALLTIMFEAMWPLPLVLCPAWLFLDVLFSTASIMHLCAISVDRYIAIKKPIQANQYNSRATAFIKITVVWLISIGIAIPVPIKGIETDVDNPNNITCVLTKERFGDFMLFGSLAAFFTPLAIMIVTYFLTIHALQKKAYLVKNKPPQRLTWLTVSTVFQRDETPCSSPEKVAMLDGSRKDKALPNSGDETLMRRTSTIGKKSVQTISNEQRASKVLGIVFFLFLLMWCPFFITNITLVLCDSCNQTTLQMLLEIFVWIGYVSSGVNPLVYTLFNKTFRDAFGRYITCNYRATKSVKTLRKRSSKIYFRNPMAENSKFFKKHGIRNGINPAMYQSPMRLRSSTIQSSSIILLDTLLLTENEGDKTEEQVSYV

[18] = molecular target: 5-hydroxytryptamine receptor 6 (Homo sapiens) (UniProt P50406); test: Displacement of [3H]LSD from human recombinant 5-HT6 receptor expressed in CHO cells at 10 uM after 120 mins by scintillation counting relative to control; format: cell-based; conditions: values are per cent of control
5-hydroxytryptamine receptor 6 (Homo sapiens), sequence (P50406 whole entry): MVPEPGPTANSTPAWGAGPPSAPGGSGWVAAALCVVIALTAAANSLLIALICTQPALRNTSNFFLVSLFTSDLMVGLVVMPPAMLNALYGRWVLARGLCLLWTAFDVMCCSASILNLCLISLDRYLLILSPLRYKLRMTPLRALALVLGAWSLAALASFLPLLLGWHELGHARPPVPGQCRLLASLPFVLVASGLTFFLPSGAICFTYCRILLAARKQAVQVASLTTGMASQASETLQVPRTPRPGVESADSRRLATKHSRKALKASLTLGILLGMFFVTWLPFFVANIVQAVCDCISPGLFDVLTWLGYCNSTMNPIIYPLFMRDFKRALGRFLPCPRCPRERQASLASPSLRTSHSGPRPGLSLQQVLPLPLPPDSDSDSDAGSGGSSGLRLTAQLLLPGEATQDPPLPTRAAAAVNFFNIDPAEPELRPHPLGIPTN

MCF7 [19] = test: Growth inhibition of human MCF7 cells after 72 hrs by MTT assay; format: functional; conditions: MCF7, 72 h
[20] = molecular target: Sodium-dependent noradrenaline transporter (Homo sapiens) (UniProt P23975); test: Displacement of [3H]nisoxetine from human recombinant norepinephrine transporter expressed in CHO cells at 10 uM after 120 mins by scintillation counting relative to control; format: cell-based; conditions: values are per cent of control
A2780 [21] = test: Growth inhibition of human A2780 cells after 72 hrs by MTT assay; format: functional; conditions: A2780, 72 h
[22] = Growth inhibition of human SMA cells after 72 hrs by MTT assay; format: functional
[23] = Growth inhibition of human SJ-G2 cells after 72 hrs by MTT assay; format: functional; conditions: SJ-G2, 72 h
[24] = molecular target: D(2) dopamine receptor (Homo sapiens) (UniProt P14416); test: Displacement of [3H]methyl-spiperone from human recombinant D2S receptor in HEK293 cells at 10 uM after 60 mins by scintillation counting relative to control; format: cell-based; conditions: values are per cent of control
D(2) dopamine receptor (Homo sapiens), sequence (P14416 whole entry): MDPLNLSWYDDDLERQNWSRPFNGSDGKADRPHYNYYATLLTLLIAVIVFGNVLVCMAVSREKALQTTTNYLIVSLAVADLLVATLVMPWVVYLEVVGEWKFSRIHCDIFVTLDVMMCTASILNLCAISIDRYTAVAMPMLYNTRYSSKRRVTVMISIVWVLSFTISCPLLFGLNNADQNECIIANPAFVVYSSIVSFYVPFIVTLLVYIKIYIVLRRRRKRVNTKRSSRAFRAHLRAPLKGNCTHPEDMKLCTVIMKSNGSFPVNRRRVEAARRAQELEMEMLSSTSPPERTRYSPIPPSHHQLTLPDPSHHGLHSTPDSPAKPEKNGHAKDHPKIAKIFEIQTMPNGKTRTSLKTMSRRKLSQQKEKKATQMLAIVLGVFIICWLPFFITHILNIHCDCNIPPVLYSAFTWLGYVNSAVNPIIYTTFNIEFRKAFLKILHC

A-431 [25] = test: Growth inhibition of human A431 cells after 72 hrs by MTT assay; format: functional; conditions: A-431, 72 h
[26] = molecular target: Histamine H2 receptor (Homo sapiens) (UniProt P25021); test: Displacement of [125I]APT from human recombinant histamine H2 receptor expressed in CHO cells at 10 uM after 120 mins by scintillation counting relative to control; format: cell-based; conditions: values are per cent of control
Histamine H2 receptor (Homo sapiens), sequence (P25021 whole entry): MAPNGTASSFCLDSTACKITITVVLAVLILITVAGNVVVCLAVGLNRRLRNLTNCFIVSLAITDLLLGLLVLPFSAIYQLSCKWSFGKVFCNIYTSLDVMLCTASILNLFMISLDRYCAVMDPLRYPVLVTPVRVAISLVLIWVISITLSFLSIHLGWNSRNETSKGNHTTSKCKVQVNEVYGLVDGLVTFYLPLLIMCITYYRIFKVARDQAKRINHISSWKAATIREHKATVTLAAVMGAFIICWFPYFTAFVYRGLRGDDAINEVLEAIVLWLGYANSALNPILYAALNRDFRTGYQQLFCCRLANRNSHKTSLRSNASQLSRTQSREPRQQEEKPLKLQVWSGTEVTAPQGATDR

[27] = molecular target: 5-hydroxytryptamine receptor 5A (Homo sapiens) (UniProt P47898); test: Displacement of [3H]LSD from human recombinant 5-HT5a receptor in HEK293 cells at 10 uM after 120 mins by scintillation counting relative to control; format: cell-based; conditions: values are per cent of control
[28] = molecular target: Kappa-type opioid receptor (Rattus norvegicus) (UniProt P34975); test: Displacement of [3H]U 69593 from rat recombinant kappa opioid receptor expressed in CHO cells at 10 uM after 60 mins by scintillation counting relative to control; format: cell-based; conditions: values are per cent of control
Kappa-type opioid receptor (Rattus norvegicus), sequence (P34975 whole entry): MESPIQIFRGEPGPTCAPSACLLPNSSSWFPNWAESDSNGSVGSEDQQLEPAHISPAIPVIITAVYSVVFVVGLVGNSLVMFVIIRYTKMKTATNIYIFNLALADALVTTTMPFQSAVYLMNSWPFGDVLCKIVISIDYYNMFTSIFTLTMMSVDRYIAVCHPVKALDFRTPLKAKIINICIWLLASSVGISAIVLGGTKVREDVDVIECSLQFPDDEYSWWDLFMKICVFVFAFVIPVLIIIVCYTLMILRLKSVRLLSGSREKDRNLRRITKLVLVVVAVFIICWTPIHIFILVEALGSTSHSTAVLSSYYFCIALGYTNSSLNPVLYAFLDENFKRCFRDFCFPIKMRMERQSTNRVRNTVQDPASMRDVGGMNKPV

HT-29 [29] = test: Growth inhibition of human HT-29 cells after 72 hrs by MTT assay; format: functional; conditions: HT-29, 72 h
[30] = molecular target: T1, 5-hydroxytryptamine receptor 2B; test: Displacement of [125I](+/-)DOI from human recombinant 5-HT2B receptor expressed in CHO cells after 60 mins by scintillation counting; format: cell-based
[31] = Growth inhibition of human SMA cells assessed as cell death at 25 uM after 72 hrs by MTT assay relative to control; format: functional; design: scale not given: the % may be the effect or the level left
BE(2)-C [32] = test: Growth inhibition of human BE(2)-C cells assessed as cell death at 25 uM after 72 hrs by MTT assay relative to control; format: functional; design: scale not given: the % may be the effect or the level left
DU-145 [33] = test: Growth inhibition of human DU145 cells assessed as cell death at 25 uM after 72 hrs by MTT assay relative to control; format: functional; design: scale not given: the % may be the effect or the level left
HT-29 [34] = test: Growth inhibition of human HT-29 cells assessed as cell death at 25 uM after 72 hrs by MTT assay relative to control; format: functional; design: scale not given: the % may be the effect or the level left
[35] = Growth inhibition of human U87 cells assessed as cell death at 25 uM after 72 hrs by MTT assay relative to control; format: functional, U-87MG ATCC; design: scale not given: the % may be the effect or the level left
A2780 [36] = test: Growth inhibition of human A2780 cells assessed as cell death at 25 uM after 72 hrs by MTT assay relative to control; format: functional; design: scale not given: the % may be the effect or the level left
MCF7 [37] = test: Growth inhibition of human MCF7 cells assessed as cell death at 25 uM after 72 hrs by MTT assay relative to control; format: functional; design: scale not given: the % may be the effect or the level left
A-431 [38] = test: Growth inhibition of human A431 cells assessed as cell death at 25 uM after 72 hrs by MTT assay relative to control; format: functional; design: scale not given: the % may be the effect or the level left
SW480 [39] = test: Growth inhibition of human SW480 cells assessed as cell death at 25 uM after 72 hrs by MTT assay relative to control; format: functional; design: scale not given: the % may be the effect or the level left
[40] = Growth inhibition of human SJ-G2 cells assessed as cell death at 25 uM after 72 hrs by MTT assay relative to control; format: functional; design: scale not given: the % may be the effect or the level left
NCI-H460 [41] = test: Growth inhibition of human NCI-H460 cells assessed as cell death at 25 uM after 72 hrs by MTT assay relative to control; format: functional; design: scale not given: the % may be the effect or the level left
MIA PaCa-2 [42] = test: Growth inhibition of human MIAPaCa2 cells assessed as cell death at 25 uM after 72 hrs by MTT assay relative to control; format: functional; design: scale not given: the % may be the effect or the level left
Ovis aries [43] = organism: Ovis aries; test: Inhibition of phosphatidyl serine liposome-stimulated sheep brain dynamin 1 GTPase activity assessed as reduction orthophosphate release up to 300 uM using GTP as substrate after 30 mins by malachite green reagent based colorimetric assay relative to control

## CCNc1nc(C)cc(NCCN(C)C)n1
Ovis aries [1]
  inhibition: inactive

## Cc1cc(NCc2ccccc2)nc(NCCN(C)C)n1
[2]
  IC50: > 50000 nM
Ovis aries [1]
  inhibition: > 50%

## CCCCCCCCCCCCNc1nc(C)cc(NCCN(C)C)n1
[3]
  GI50: 1500 nM
SW480 [4]
  GI50: 800 nM
BE(2)-C [5]
  GI50: 1500 nM
[6]
  residual binding, % of control: 104%
DU-145 [7]
  GI50: 1900 nM
MIA PaCa-2 [8]
  GI50: 1500 nM
[9]
  residual binding, % of control: 105%
[10]
  residual binding, % of control: 93%
[11]
  residual binding, % of control: 91%
[12]
  residual binding, % of control: 102%
[13]
  residual binding, % of control: 93%
[14]
  residual binding, % of control: 98%
[2]
  IC50: 1400 nM
[15]
  residual binding, % of control: 96%
NCI-H460 [16]
  GI50: 2500 nM
[17]
  residual binding, % of control: 94%
[18]
  residual binding, % of control: 91%
MCF7 [19]
  GI50: 1500 nM
[20]
  residual binding, % of control: 96%
A2780 [21]
  GI50: 1800 nM
[22]
  GI50: 1300 nM
[23]
  GI50: 1500 nM
[24]
  residual binding, % of control: 99%
A-431 [25]
  GI50: 1700 nM
[26]
  residual binding, % of control: 106%
[27]
  residual binding, % of control: 99%
[28]
  residual binding, % of control: 97%
HT-29 [29]
  GI50: 1400 nM

## CCC(C)Nc1cc(C)nc(NCCN(C)C)n1 (stereo unspecified)
Ovis aries [1]
  inhibition: inactive

## CCCCNc1nc(C)cc(NCCN(C)C)n1
Ovis aries [1]
  inhibition: inactive

## COc1cc(CC(C)N)c(OC)cc1I (racemic)
[30]
  Ki: 1.6 nM

## CCC(C)Nc1nc(C)cc(NCCN(C)C)n1 (stereo unspecified)
[2]
  IC50: > 50000 nM
Ovis aries [1]
  inhibition: > 50%

## CCCCCCCCCCCCNc1nc(C)cc(Cl)n1
[31]
  Activity: 65%
BE(2)-C [32]
  Activity: 46%
DU-145 [33]
  Activity: 42%
HT-29 [34]
  Activity: 56%
[35]
  Activity: 21%
[2]
  IC50: > 300000 nM
A2780 [36]
  Activity: 63%
MCF7 [37]
  Activity: 53%
A-431 [38]
  Activity: 25%
SW480 [39]
  Activity: 37%
[40]
  Activity: 25%
NCI-H460 [41]
  Activity: 21%
MIA PaCa-2 [42]
  Activity: 42%

## Cc1cc(NCCN(C)C)nc(NCc2ccccc2)n1
[2]
  IC50: > 50000 nM
Ovis aries [1]
  inhibition: > 50%

## CCNc1cc(C)nc(NCCN(C)C)n1
Ovis aries [1]
  inhibition: inactive

## Cc1cc(Cl)nc(NCCN)n1
Ovis aries [43]
  inhibition: inactive

## CCNc1cc(C)nc(Cl)n1
Ovis aries [43]
  inhibition: inactive

## Cc1cc(NCc2ccccc2)nc(Cl)n1
Ovis aries [43]
  inhibition: inactive

## CCCCNc1cc(C)nc(NCCN(C)C)n1
[2]
  IC50: > 50000 nM
Ovis aries [1]
  inhibition: > 50%

## Cc1cc(Cl)nc(N2CCN(C)CC2)n1
Ovis aries [43]
  inhibition: inactive

## CCCN(CC1CC1)c1nc(C)cc(Cl)n1
Ovis aries [43]
  inhibition: inactive

## Cc1cc(NCCNC(=O)OC(C)(C)C)nc(Cl)n1
Ovis aries [43]
  inhibition: inactive

## CCCCNc1cc(C)nc(Cl)n1
Ovis aries [43]
  inhibition: inactive

## CCCNc1cc(C)nc(NCCN(C)C)n1
Ovis aries [1]
  inhibition: inactive

## CCCNc1nc(C)cc(NCCN(C)C)n1
Ovis aries [1]
  inhibition: inactive

## CCCCCCCCNc1nc(C)cc(Cl)n1
Ovis aries [43]
  inhibition: inactive

## Cc1cc(Cl)nc(NC2CCCCC2)n1
Ovis aries [43]
  inhibition: inactive

## COc1ccc(CNc2nc(C)cc(Cl)n2)cc1
Ovis aries [43]
  inhibition: inactive
